In the supplement of paper PMC10307832:

Assays:
Experiment in all cases: relative viability (nuclei count vs DMSO), 5 days (fraction); higher = more cells survive
[1] = compound: CC1=C(CC(=O)O)c2cc(F)ccc2/C1=C\c1ccc([S+](C)[O-])cc1 [Sulindac] + COc1cc2c(Oc3ccc(NC(=O)C4(C(=O)Nc5ccc(F)cc5)CC4)cc3F)ccnc2cc1OCCCN1CCOCC1 [Foretinib] (partner 0.25 µM)
Summary of the method: (§1)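 Five library-drug doses in √10 steps were combined with a fixed anchor-drug dose, or a single drug was given alone, by pin tool to lung cancer cell lines in 1536-well plates the day after seeding. Nuclei were stained and counted after 5 days. Relative viability is the nuclei count in treated wells over that in vehicle wells, taken as the median of duplicate plates.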

[2] = compound: CN[C@@H]1C[C@H]2O[C@@](C)([C@@H]1OC)n1c3ccccc3c3c4c(c5c6ccccc6n2c5c31)C(=O)NC4 [Staurosporine] + COc1cc2c(Oc3ccc(NC(=O)C4(C(=O)Nc5ccc(F)cc5)CC4)cc3F)ccnc2cc1OCCCN1CCOCC1 [Foretinib] (partner 0.25 µM)
Summary of the method: as §1

[3] = compound: CN[C@@H]1C[C@H]2O[C@@](C)([C@@H]1OC)n1c3ccccc3c3c4c(c5c6ccccc6n2c5c31)C(=O)NC4 [Staurosporine] + CCNC(=O)c1noc(-c2cc(C(C)C)c(O)cc2O)c1-c1ccc(CN2CCOCC2)cc1 [Luminespib] (partner 0.01 µM)
Summary of the method: as §1

[4] = compound: O=c1[nH]cc(F)c(=O)[nH]1 [5-Fluorouracil] + NC(=O)Nc1cc(-c2cccc(F)c2)sc1C(=O)N[C@H]1CCCNC1 [AZD7762] (partner 0.2 µM)
Summary of the method: as §1

| Cell Line | relative viability ([1]; first compound 0.08 µM) | relative viability ([1]; first compound 0.253 µM) | relative viability ([1]; first compound 0.8 µM) | relative viability ([1]; first compound 2.53 µM) | relative viability ([1]; first compound 8 µM) | relative viability ([2]; first compound 0.005 µM) | relative viability ([2]; first compound 0.01581 µM) | relative viability ([2]; first compound 0.05 µM) | relative viability ([2]; first compound 0.1581 µM) | relative viability ([2]; first compound 0.5 µM) | relative viability ([3]; first compound 0.005 µM) | relative viability ([3]; first compound 0.01581 µM) | relative viability ([3]; first compound 0.05 µM) | relative viability ([3]; first compound 0.1581 µM) | relative viability ([3]; first compound 0.5 µM) | relative viability ([4]; first compound 0.02 µM) | relative viability ([4]; first compound 0.2 µM) | relative viability ([4]; first compound 0.6325 µM) | relative viability ([4]; first compound 2 µM) |
| --- | --- | --- | --- | --- | --- | --- | --- | --- | --- | --- | --- | --- | --- | --- | --- | --- | --- | --- | --- |
| NCI-H1623 | 0.875 | 0.779 | 0.637 | 0.873 | 0.923 | 0.967 | 0.643 | 0.925 | 0.731 | 0.341 | 0.55 | 0.531 | 0.401 | 0.419 | 0.296 | – | – | – | – |
| NCI-H322M | 0.992 | 0.996 | 0.882 | 0.954 | 1 | 0.95 | 0.759 | 0.536 | 0.357 | 0.288 | 0.631 | – | 0.259 | 0.274 | 0.182 | 0.57 | 0.627 | 0.608 | 0.53 |
| NCI-H2405 | 1.03 | 1.08 | 0.981 | 1.03 | 1.09 | 0.675 | 0.302 | – | 0.105 | 0.0788 | 0.282 | 0.148 | 0.0814 | 0.112 | 0.0639 | 0.813 | 0.86 | 0.684 | 0.494 |
| HCC-44 | – | – | – | – | – | – | – | – | – | – | 0.416 | 0.169 | 0.161 | 0.187 | 0.137 | 1.01 | 0.925 | 0.733 | 0.466 |
| HCC-78 | 0.512 | 0.547 | 0.585 | 0.566 | 0.556 | 0.537 | 0.459 | 0.429 | 0.486 | – | – | – | – | – | – | 0.562 | 0.503 | 0.239 | 0.306 |
| COR-L23 | 1.18 | 1.03 | 0.88 | 0.982 | 1.26 | 0.513 | 0.459 | 0.376 | 0.119 | 0.0927 | 0.262 | 0.324 | 0.083 | 0.0871 | 0.0485 | – | – | – | – |
| NCI-H2009 | 1.32 | 1.26 | 1.26 | 1.22 | 1.12 | 0.527 | 0.389 | 0.212 | 0.177 | 0.127 | 0.357 | 0.271 | 0.17 | 0.114 | 0.149 | – | – | – | – |
| NCI-H3122 | 1.06 | 0.936 | 1.01 | 1.01 | 0.981 | 1.03 | – | 0.76 | 0.695 | 0.371 | 0.0697 | – | 0.0639 | 0.0502 | 0.0521 | 0.959 | 0.856 | 0.197 | 0.143 |
| NCI-H2228 | 1.02 | 1.07 | 0.773 | 0.751 | 0.899 | 0.889 | 0.537 | 0.317 | 0.11 | 0.0985 | 0.0928 | 0.122 | 0.0907 | 0.0947 | 0.0857 | – | – | – | – |
| NCI-H1944 | 0.962 | 0.874 | 0.822 | 0.974 | 1.03 | 0.756 | – | 0.431 | 0.39 | 0.251 | 0.928 | 0.507 | 0.41 | 0.44 | 0.187 | 0.475 | 0.199 | 0.106 | 0.0961 |
